# Assay results published in patent US8080657B2, “Compounds of reverse turn mimetics and the use thereof” (Choongwae Pharma Corporation, priority 2008, dated 2011).
# pIC50: −log10 of the molar value.
# Molecular target: T1, cDNA-expressed human hepatic CYP3A4 (Homo sapiens, UniProt P08684)
# T1 construct: purchased BD Gentest 456202
# Assay: P450 CYP3A4 inhibitory activity screening (BFC substrate, fluorescence)
# Format: biochemical
# Conditions: P450 CYP3A4 inhibitory activity screening, fluorescent assay; read-out: CYP3A4 inhibition, IC50 (μM) fluorescent assay
# Description: P450 CYP3A4 Inhibitory Activity Screening
# Assay was conducted in a 200 μL volume in 96-well microtiter plates using cDNA-expressed human hepatic CYP3A4 (supersome, BD Gentest™ #456202). 7-Benzyloxy-4-trifluoromethyl-coumarin (BFC) was used as a substrate for CYP3A4. Test articles and substrate BFC were dissolved in 100% acetonitrile. The final volume of acetonitrile in the incubation mixture was less than 1% (volume/volume). Potassium phosphate buffer (pH 7.4, final concentration 0.1 M), MgCl2 (final concentration 8.3 mM), EDTA (final concentration 1.67 mM), a test article stock solution, a CYP3A4 supersome and NADPH (final concentration 0.25 mM) were added to each well. The reaction was initiated by the addition of substrate (BFC, final concentration 30 µM) after a 10 min pre-incubation at 37° C. After 10 min incubation at 37° C., the reaction was terminated by the addition of 75 μL of acetonitrile:0.5 M Tris-base=4:1 (volume/volume). Thereafter, Fluorescent signal was measured using a fluorometer. BFC metabolite, 7-hydroxy-4-trifluoromethyl-coumarin, was measured using an excitation wavelength of 409 nm and an emission wavelength of 530 nm.
# T1 sequence (P08684 whole entry): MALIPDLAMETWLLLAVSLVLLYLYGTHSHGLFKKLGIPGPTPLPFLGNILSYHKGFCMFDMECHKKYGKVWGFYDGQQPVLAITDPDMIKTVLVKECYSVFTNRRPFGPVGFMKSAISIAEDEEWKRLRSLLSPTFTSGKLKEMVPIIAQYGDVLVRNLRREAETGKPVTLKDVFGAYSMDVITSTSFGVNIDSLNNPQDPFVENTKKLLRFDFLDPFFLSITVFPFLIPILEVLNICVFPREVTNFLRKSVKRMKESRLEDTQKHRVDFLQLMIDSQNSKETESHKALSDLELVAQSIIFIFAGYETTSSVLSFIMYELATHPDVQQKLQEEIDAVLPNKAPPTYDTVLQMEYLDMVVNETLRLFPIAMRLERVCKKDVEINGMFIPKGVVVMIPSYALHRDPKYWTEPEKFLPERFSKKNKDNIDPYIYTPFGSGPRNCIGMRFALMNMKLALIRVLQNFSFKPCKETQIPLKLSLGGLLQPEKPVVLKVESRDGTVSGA
row,Compound,IC50 [µM]
1,C=CCN1CC(=O)N2[C@@H](Cc3ccc(O)cc3)C(=O)N(Cc3cccc(C(=O)N(C)C)c3)C[C@@H]2N1C(=O)NCc1ccccc1 [compound 22],11.6
2,C=CCN1CC(=O)N2[C@@H](Cc3ccc(O)cc3)C(=O)N(Cc3cccc(C(=O)NCCOC)n3)C[C@@H]2N1C(=O)NCc1ccccc1 [compound 32],19.9
3,C=CCN1CC(=O)N2[C@@H](Cc3ccc(O)cc3)C(=O)N(Cc3cccc(C(=O)OC)c3)C[C@@H]2N1C(=O)NCc1ccccc1 [compound 11],7.58
4,C=CCN1CC(=O)N2[C@@H](Cc3ccc(O)cc3)C(=O)N(Cc3cccc(C(=O)O)n3)C[C@@H]2N1C(=O)NCc1ccccc1 [compound 56],> 50
5,C=CCN1CC(=O)N2[C@@H](Cc3ccc(O)cc3)C(=O)N(Cc3cccc(-c4ccc[nH]c4=O)c3)C[C@@H]2N1C(=O)NCc1ccccc1 [compound 10],7.02
6,C=CCN1CC(=O)N2[C@@H](Cc3ccc(O)cc3)C(=O)N(Cc3cccc4c3nc(C(F)(F)F)n4C)C[C@@H]2N1C(=O)NCc1ccccc1 [compound 45],> 10
7,C=CCN1CC(=O)N2[C@@H](Cc3ccc(O)cc3)C(=O)N(Cc3cccc4c(C(C)=O)c[nH]c34)C[C@@H]2N1C(=O)NCc1ccccc1 [compound 60],4.84
8,C=CCN1CC(=O)N2[C@@H](Cc3ccc(O)cc3)C(=O)N(Cc3cccc(C#N)c3)C[C@@H]2N1C(=O)NCc1ccccc1 [compound 19],9.65
9,C=CCN1CC(=O)N2[C@@H](Cc3ccc(OS(N)(=O)=O)cc3)C(=O)N(Cc3cccc4c3ncn4C)C[C@@H]2N1C(=O)NCc1ccccn1 [compound 23],12
10,C=CCN1CC(=O)N2[C@@H](Cc3ccc(O)cc3)C(=O)N(Cc3cccc4c3ncn4CC(N)=O)C[C@@H]2N1C(=O)NCc1ccccc1 [compound 58],> 50
11,C=CCN1CC(=O)N2[C@@H](Cc3ccc(O)cc3)C(=O)N(Cc3cccc(N(C)C(=O)OC)c3)C[C@@H]2N1C(=O)NCc1ccccc1 [compound 21],10.2
12,C=CCN1CC(=O)N2[C@@H](Cc3ccc(O)cc3)C(=O)N(Cc3cccc(C(=O)NC)c3)C[C@@H]2N1C(=O)NCc1ccccc1 [compound 13],8
13,C=CCN1CC(=O)N2[C@@H](Cc3ccc(O)cc3)C(=O)N(Cc3cccc4c3ncn4C)C[C@@H]2N1C(=O)NCc1ccccn1 [compound 47],> 50
14,C=CCN1CC(=O)N2[C@@H](Cc3ccc(O)cc3)C(=O)N(Cc3cccc(NC(N)=O)c3)C[C@@H]2N1C(=O)NCc1ccccc1 [compound 37],34.3
15,C#CCN1C[C@H]2N(C(=O)CN(CC=C)N2C(=O)NCc2ccccc2)[C@@H](Cc2ccc(O)cc2)C1=O [compound 29],18.1
16,C=CCN1CC(=O)N2[C@@H](Cc3ccc(O)cc3)C(=O)N(Cc3cccc(-c4cccc(C(=O)O)c4)c3)C[C@@H]2N1C(=O)NCc1ccccc1 [compound 24],12.9
17,C=CCN1CC(=O)N2[C@@H](Cc3ccc(O)cc3)C(=O)N(Cc3cccc(C(=O)NCC4CCCO4)c3)C[C@@H]2N1C(=O)NCc1ccccc1 (stereo partly drawn) [compound 17],9.02
18,C=CCN1CC(=O)N2[C@@H](Cc3ccc(O)cc3)C(=O)N(Cc3cccc(C(=O)N(C)C)n3)C[C@@H]2N1C(=O)NCc1ccccc1 [compound 39],35.3
19,C=CCN1CC(=O)N2[C@@H](Cc3ccc(OS(N)(=O)=O)cc3)C(=O)N(Cc3cccc(N4CCCC4=O)c3)C[C@@H]2N1C(=O)NCc1ccccc1 [compound 16],9
20,C=CCN1CC(=O)N2[C@@H](Cc3ccc(O)cc3)C(=O)N(Cc3ccnc(C(N)=O)c3)C[C@@H]2N1C(=O)NCc1ccccc1 [compound 44],45.1
21,C=CCN1CC(=O)N2[C@@H](Cc3ccc(O)cc3)C(=O)N(Cc3cccc(C(=O)N[C@@H](CCC(=O)O)C(=O)O)c3)C[C@@H]2N1C(=O)NCc1ccccc1 [compound 51],> 50

# Results, then the compound that gave them:
row,IC50 [µM],Compound
1,16.8,C=CCN1CC(=O)N2[C@@H](Cc3ccc(O)cc3)C(=O)N(Cc3cccc(NC(=O)NC(N)=O)c3)C[C@@H]2N1C(=O)NCc1ccccc1 [compound 27]
2,> 50,C=CCN1CC(=O)N2[C@@H](Cc3ccc(O)cc3)C(=O)N(Cc3cccc(C(N)=O)n3)C[C@@H]2N1C(=O)NCc1ccccc1 [compound 52]
3,6.78,C=CCN1CC(=O)N2[C@@H](Cc3ccc(O)cc3)C(=O)N(Cc3cccc(-c4ccc(S(C)(=O)=O)cc4)n3)C[C@@H]2N1C(=O)NCc1ccccc1 [compound 6]
4,> 50,C=CCN1CC(=O)N2[C@@H](Cc3ccc(O)cc3)C(=O)N(Cc3ccc(CP(=O)(O)O)cc3)C[C@@H]2N1C(=O)NCc1ccccc1 [compound 57]
5,> 50,O=C(O)c1cccc(CN2C[C@H]3N(C(=O)CN(Cc4ccccc4)N3C(=O)NCc3ccccc3)[C@@H](Cc3ccc(O)cc3)C2=O)c1 [compound 49]
6,2.63,C=CCN1CC(=O)N2C(Cc3ccc(O)cc3)C(=O)N(Cc3cccc4c(-c5ccccc5)cn(S(=O)(=O)c5ccccc5)c34)C[C@@H]2N1C(=O)NCc1ccccc1 (stereo partly drawn) [compound 59]
7,13.1,C=CCN1CC(=O)N2[C@@H](Cc3ccc(O)cc3)C(=O)N(Cc3cccc(C(=O)NC)n3)C[C@@H]2N1C(=O)NCc1ccccc1 [compound 25]
8,6.84,C=CCN1CC(=O)N2[C@@H](Cc3ccc(O)cc3)C(=O)N(Cc3cccnc3N3CCC(N4CCCC4)CC3)C[C@@H]2N1C(=O)NCc1ccccc1 [compound 7]
9,24.2,C=CCN1CC(=O)N2[C@@H](Cc3ccc(O)cc3)C(=O)N(Cc3cccc(NC(=O)OC)c3)C[C@@H]2N1C(=O)NCc1ccccc1 [compound 33]
10,10.1,C=CCN1CC(=O)N2[C@@H](Cc3ccc(O)cc3)C(=O)N(Cc3cccc(C(=O)N4CCOCC4)c3)C[C@@H]2N1C(=O)NCc1ccccc1 [compound 20]
11,44.4,C=CCN1CC(=O)N2[C@@H](Cc3ccc(O)cc3)C(=O)N(Cc3cccc(C(N)=O)c3[N+](=O)[O-])C[C@@H]2N1C(=O)NCc1ccccc1 [compound 43]
12,8.42,C=CCN1CC(=O)N2[C@@H](Cc3ccc(O)cc3)C(=O)N(Cc3cccc4c3ncn4CCC)C[C@@H]2N1C(=O)NCc1ccccc1 [compound 14]
13,44.1,C=CCN1CC(=O)N2[C@@H](Cc3ccc(O)cc3)C(=O)N(Cc3cccc(C(=O)NCCO)c3)C[C@@H]2N1C(=O)NCc1ccccc1 [compound 42]

# Same assay, conditions: human CYP3A4 supersome, substrate BFC, 10 min incubation at 37° C.; read-out: IC50 values of Compounds against CYP3A4 activity
row,pIC50,Compound
1,4.99,C=CCN1CC(=O)N2[C@@H](Cc3ccc(O)cc3)C(=O)N(Cc3cccc(N(C)C(=O)OC)c3)C[C@@H]2N1C(=O)NCc1ccccc1 [D]
2,4.88,C=CCN1CC(=O)N2[C@@H](Cc3ccc(O)cc3)C(=O)N(Cc3cccc(C(=O)NC)n3)C[C@@H]2N1C(=O)NCc1ccccc1 [A]

# Tested on: MV-4-11 cells
# Assay: Cell growth inhibition assay on AML cancer cells (CellTiter 96)
# Format: cell-based
# Conditions: Homo sapiens, MV4-11; cell growth inhibition on AML cancer cells, MV-4-11; read-out: MV-4-11, GI50
# Description: The lower GI50 value means the higher inhibition activity.
# Cell Growth Inhibition Activity on AML Cancer Cells (Cell Growth Inhibition Assay)
# Cell growth Inhibition assay was performed to investigate the rate of inhibition of cell proliferation by the test compounds. MV-4-11 (human, Acute Myeloid Leukemia cell line) cells were cultured in Iscove's modified Dulbecco's medium (IMDM) including 10% fetal bovine serum (FBS), 1× penicillin/streptomycin (10,000 units/ml Penicillin, […] Streptomycin in 0.85% NaCl). MV-4-11 cells were harvested with IMDM medium and 5×10^4 cells/well were transferred to each well of 96 well culture plates (Nunc, #167008). The test compounds were treated with the serial dilution and duplicated for each concentration. For the serial dilution, the test compounds were repeatedly diluted with the same volume of media onto 96-well assay block (costar, #3956). After the dilution, each compound was added to each well. The background absorbance was also measured during the test compounds treatment by adding the IMDM media in replacement of test compound to the negative control plate. The plates were incubated for 3 days (72 hours) at 37° C. in the humidified incubator containing 5% CO2. On the last day, 20 μL of CellTiter 96 Aqueous One Solution (Promega #G3581) was added to the culture in each well and the plates were incubated for a few hours at 37° C. in the humidified incubator containing 5% CO2. After the incubation, the absorbance of each cell was measured at 490 nm using an EnVision (Perkinelmer, USA). The GI50 values were calculated using a Prism 3.0 program.
row,Compound,GI50 [µM]
1,C=CCN1CC(=O)N2[C@@H](Cc3ccc(O)cc3)C(=O)N(Cc3cccc(C(=O)NCCC)c3)C[C@@H]2N1C(=O)NCc1ccccc1 [compound 37],0.24
2,C=CCN1CC(=O)N2[C@@H](Cc3ccc(O)cc3)C(=O)N(Cc3cccc(C(=O)Nc4cc[nH]n4)c3)C[C@@H]2N1C(=O)NCc1ccccc1 [compound 41],1.56
3,C=CCOc1ccc(CN2C[C@H]3N(C(=O)CN(CC=C)N3C(=O)NCc3ccccc3)[C@@H](Cc3ccc(O)cc3)C2=O)cc1 [compound 12],2.99
4,C=CCN1CC(=O)N2[C@@H](Cc3ccc(O)cc3)C(=O)N(Cc3cccc4c3OC(F)(F)O4)C[C@@H]2N1C(=O)NCc1ccccc1 [compound 2],0.6
5,C=CCN1CC(=O)N2[C@@H](Cc3ccc(O)cc3)C(=O)N(Cc3cccc(C(=O)N4CCCC4)c3)C[C@@H]2N1C(=O)NCc1ccccc1 [compound 27],1.11

# Other lines, results leading:
row,GI50 [µM],Compound
1,2.03,C=CCN1CC(=O)N2[C@@H](Cc3ccc(O)cc3)C(=O)N(Cc3cccc(C(=O)NN)c3)C[C@@H]2N1C(=O)NCc1ccccc1 [compound 24]
2,1.12,C=CCN1CC(=O)N2[C@@H](Cc3ccc(O)cc3)C(=O)N(Cc3cccc(-c4ncc[nH]4)c3)C[C@@H]2N1C(=O)NCc1ccccc1 [compound 35]
3,0.31,C=CCN1CC(=O)N2[C@@H](Cc3ccc(O)cc3)C(=O)N(Cc3cccc(C(N)=O)n3)C[C@@H]2N1C(=O)NCc1ccccc1 [compound 43]
4,0.78,C=CCN1CC(=O)N2[C@@H](Cc3ccc(O)cc3)C(=O)N(Cc3cccc(C(=O)N4CCCCC4)c3)C[C@@H]2N1C(=O)NCc1ccccc1 [compound 26]
